Test results taken from US4923965A, “Tripeptides of N^3 -4-methoxyfumaryl-L-2,3-diaminopropanoic acid” (Politechnika Gdanska, priority 1988, dated 1990).
In brackets after ≈: the same amount, converted by molar mass. Where a name gives a salt, the structure may show the parent alone.

Experiments:
[1] = test system: Candida albicans ATCC 26278; assay: minimum inhibitory concentration for elected strain; assay type: cell-based
Procedure: The in vitro activity has been evaluated by the method of serial dilutions in parallel on solid YNB medium and on YNB w/o+AN medium, where the abbreviation AN means 200 mg of sodium glutamate, 10 mg of L-histidine, 20 mg of DL-methionine, 20 mg DL-tryptophane, 10 g of glucose and 15 g of agar-agar per 1 liter of the YNB medium. The application of the medium modified in such a manner was made necessary by the known phenomenon of lower biological activity in the media containing ammonium sulphate as a source of nitrogen.

[2] = MIC stated in the synthesis examples; assay type: cell-based; conditions: strain and medium not given

Structure (SMILES)	minimum inhibitory concentration, MIC [1]	MIC [2]
CCC[C@H](NC(=O)[C@@H](N)CCCCN)C(=O)N[C@@H](CNC(=O)/C=C/C(=O)OC)C(=O)O [XXII, N^2 --L-lysyl-L-norvalyl-N^3-4-methoxyfumaryl-L-2,3-diaminopropanoic dihydrochloride]	0.02 mg/L	
COC(=O)/C=C/C(=O)NC[C@H](NC(=O)[C@@H](N)CCSC)C(=O)N[C@@H](CCSC)C(=O)O [VIII, N^2 -L-methionyl, n^3-4-methoxyfumaryl-L-2,3-diaminopropanoyl-L-methonine hydrochloride]		0.8 mg/L
CCC[C@H](NC(=O)[C@@H](N)CCSC)C(=O)N[C@@H](CNC(=O)/C=C/C(=O)OC)C(=O)O [XVI, N^2 -L-methionyl-L-norvalyl, N^3-4-methoxyfumaryl-L-2,3-diaminopropanoic hydrochloride]	0.4 mg/L	0.8 mg/L
COC(=O)/C=C/C(=O)NC[C@H](N)C(=O)N[C@@H](CCSC)C(=O)N[C@@H](C)C(=O)O [Example I, N^3-4-methoxyfumaryl-L-2,3-diaminopropanoyl-L-methionyl-L-aniline]		0.1 mg/L (≈ 0.239 µM)
